Measurements reported in patent US20080021217A1, “HETEROCYCLIC INHIBITORS OF RHO KINASE” (priority 2006, published 2008).

Columns and labels:
[1] = target: T1, recombinant N-terminal GST-tagged human Rho kinase 1 (ROCK1, amino acids 1-535) (Homo sapiens, UniProt Q13464); assay: In vitro Rho kinase assay (luciferase-based ATP consumption), ROCK1; assay type: biochemical
T1 construct: ROCK1, amino acids 1-535, Invitrogen Inc., cat. #PV-3691; GST (N); purchased Invitrogen Inc. PV-3691
Protocol: (§1) Rho kinase biochemical assays described below depend on firefly luciferase-based, indirect measurement of total ATP consumption by the kinase following incubation with substrate and ATP. 25 μl of Rho kinase assay buffer (20 mM Tris-HCL [pH 7.5], 1 mM MgCl2, 0.4 mM CaCl2, 0.15 mM EGTA, 0.1 mg/ml bovine serum albumin) containing 0.82 μg/ml of recombinant N-terminal GST-tagged human Rho kinase 1 (ROCK1, amino acids 1-535, Invitrogen Inc., cat. #PV-3691) or recombinant N-terminal GST-tagged human Rho kinase 2 (ROCK2, amino acids 1-552, Invitrogen Inc., cat #PV3759), 100 μg/ml S6 peptide substrate (related to amino acids 218-249 of the human 40S ribosomal protein S6, and suitable for ROCK1 or ROCK2, e.g. Upstate/Millipore Inc., cat #12-420), and 3 µM ATP are dispensed to wells of a 384 multi-well opaque plate. The plate is centrifuged for 30 seconds at approximately 200×g. 240 nl of test compound in DMSO is dispensed to each well by passive pin transfer. The lag phase of this in vitro kinase reaction permits addition of compounds soon after the reaction initiates. The reaction is allowed to incubate at 30° C. for 2 hours. The assay plates are sealed and maintained in a humidified environment. After 2 hours, 25 μl of easyLite protein kinase assay reagent (Perkin-Elmer, Inc.) is dispensed. After an additional 10 minute incubation at room temperature (about 22° C.), luminescence activity is measured on a Molecular Devices Analyst multi-mode plate reader or other suitable plate reader. Kinase inhibition results in less ATP consumption, and therefore increased luminescence signal. Negative control activity is measured with DMSO lacking any test compound. The positive control is 2-methyl-1-(4-methylisoquinolin-5-ylsulfonyl)perhydro-1,4-diazepine hydrochloride (aka H-1152P, HCl salt). Efficacy is measured as a percentage of positive control activity. […] In some cases, kinase reactions and compound testing are performed in 1536 multi-well plates under similar conditions, with assay volumes appropriately scaled. The designated NT means the cited example was not tested.

[2] = target: T2, recombinant N-terminal GST-tagged human Rho kinase 2 (ROCK2, amino acids 1-552) (Homo sapiens, UniProt O75116); assay: In vitro Rho kinase assay (luciferase-based ATP consumption), ROCK2; assay type: biochemical
T2 construct: ROCK2, amino acids 1-552, Invitrogen Inc., cat #PV3759; GST (N); purchased Invitrogen Inc. PV3759
T2 sequence (O75116 1-552): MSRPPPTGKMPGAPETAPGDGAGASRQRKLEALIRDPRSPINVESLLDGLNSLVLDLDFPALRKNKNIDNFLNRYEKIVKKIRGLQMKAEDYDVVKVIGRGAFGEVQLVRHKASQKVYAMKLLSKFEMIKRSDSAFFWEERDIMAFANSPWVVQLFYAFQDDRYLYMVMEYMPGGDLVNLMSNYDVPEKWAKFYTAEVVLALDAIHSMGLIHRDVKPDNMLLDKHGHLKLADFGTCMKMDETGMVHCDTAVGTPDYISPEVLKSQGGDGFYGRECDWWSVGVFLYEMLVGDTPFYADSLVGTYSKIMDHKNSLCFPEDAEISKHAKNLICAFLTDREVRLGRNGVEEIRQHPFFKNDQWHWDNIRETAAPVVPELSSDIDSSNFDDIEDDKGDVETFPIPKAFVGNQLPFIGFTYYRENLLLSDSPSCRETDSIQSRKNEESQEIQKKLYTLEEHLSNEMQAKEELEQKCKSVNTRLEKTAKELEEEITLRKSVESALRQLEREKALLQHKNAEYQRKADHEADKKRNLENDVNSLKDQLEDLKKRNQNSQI
Protocol: as §1

T1 sequence (Q13464 1-535): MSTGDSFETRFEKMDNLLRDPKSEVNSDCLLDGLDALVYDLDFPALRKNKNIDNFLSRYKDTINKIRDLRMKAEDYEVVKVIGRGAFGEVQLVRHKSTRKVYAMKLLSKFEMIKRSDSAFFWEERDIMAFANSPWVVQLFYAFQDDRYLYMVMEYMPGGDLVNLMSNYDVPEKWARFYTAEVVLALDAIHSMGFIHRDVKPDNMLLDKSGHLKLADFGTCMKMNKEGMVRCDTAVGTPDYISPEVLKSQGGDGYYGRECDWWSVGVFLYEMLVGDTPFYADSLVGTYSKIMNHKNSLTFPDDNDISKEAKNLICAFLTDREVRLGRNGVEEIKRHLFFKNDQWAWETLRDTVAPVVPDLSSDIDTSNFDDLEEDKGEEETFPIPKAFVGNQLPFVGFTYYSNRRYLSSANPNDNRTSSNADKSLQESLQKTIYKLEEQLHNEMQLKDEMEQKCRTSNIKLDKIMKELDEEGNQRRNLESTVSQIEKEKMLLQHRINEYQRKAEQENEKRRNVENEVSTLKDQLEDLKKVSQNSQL

Row | IC50 [1] | IC50 [2] | SMILES
1 | < 5 µM | < 5 µM | O=C(NCc1nc(-c2c[nH]c3ncccc23)n[nH]1)c1cccs1 [Example 70, N-((3-(1H-pyrrolo[2,3-b]pyridin-3-yl)-1H-1,2,4-triazol-5-yl)methyl)thiophene-2-carboxamide]
2 | > 5 µM | < 5 µM | O=C(O)c1ccc(C(=O)NCc2nc(-c3ccncc3)n[nH]2)cc1 [Example 31, 4-((3-(Pyridin-4-yl)-1H-1,2,4-triazol-5-yl)methylcarbamoyl)benzoic acid]
3 | < 5 µM | < 5 µM | CC(NC(=O)c1ccc(O)cc1O)c1nc(-c2ccncc2)n[nH]1 (centres unmarked) [Example 66, 2,4-Dihydroxy-N-(1-(3-(pyridin-4-yl)-1H-1,2,4-triazol-5-yl)ethyl)benzamide]
4 | < 5 µM | < 5 µM | COc1cccc(O)c1C(=O)NCc1nc(-c2ccncc2)n[nH]1 [Example 23, 2-hydroxy-6-methoxy-N-((3-(pyridin-4-yl)-1H-1,2,4-triazol-5-yl)methyl)benzamide]
5 | > 5 µM | > 5 µM | O=C(NCc1ncc(-c2ccncc2)s1)c1cccs1 [Example 1, N-((5-(pyridin-4-yl)thiazol-2-yl)methyl)thiophene-2-carboxamide]
6 | < 5 µM | > 5 µM | O=C(NCc1nc(-c2ccncc2)n[nH]1)c1cccc2c1OCC2 [Example 43, N-((3-(pyridin-4-yl)-1H-1,2,4-triazol-5-yl)methyl)-2,3-dihydrobenzofuran-7-carboxamide]
7 | < 5 µM | < 5 µM | Cc1cccc(C(=O)NCc2cc(-c3ccncc3)n[nH]2)c1O [Example 10, 2-hydroxy-3-methyl-N-((3-(pyridin-4-yl)-1H-pyrazol-5-yl)methyl)benzamide]
8 | > 5 µM | > 5 µM | O=C(c1cccs1)N1CCCC1c1nc(-c2ccncc2)n[nH]1 (centres unmarked) [Example 67, (2-(3-(pyridin-4-yl)-1H-1,2,4-triazol-5-yl)pyrrolidin-1-yl) (thiophen-2-yl)methanone]
9 | < 5 µM | < 5 µM | COc1ccc(C(=O)NCc2nc(-c3ccncc3)n[nH]2)c(O)c1 [Example 24, 2-hydroxy-4-methoxy-N-((3-(pyridin-4-yl)-1H-1,2,4-triazol-5-yl)methyl)benzamide]
10 | < 5 µM | < 5 µM | O=C(NCc1nc(-c2ccncc2)n[nH]1)c1ccc(CO)cc1 [Example 51, 4-(Hydroxymethyl)-N-((3-(pyridin-4-yl)-1H-1,2,4-triazol-5-yl)methyl)benzamide]
11 | < 5 µM | < 5 µM | CS(=O)(=O)Nc1cccc(C(=O)NCc2nc(-c3c[nH]c4ncccc34)cs2)c1 [Example 73, N-((4-(1H-pyrrolo[2,3-b]pyridin-3-yl)thiazol-2-yl)methyl)-3-(methylsulfonamido)benzamide]
12 | > 5 µM | > 5 µM | CS(=O)(=O)Nc1ccc(C(=O)NCc2nc(-c3ccncc3)n[nH]2)cc1 [Example 44, 4-(Methylsulfonamido)-N-((3-(pyridin-4-yl)-1H-1,2,4-triazol-5-yl)methyl)benzamide]
13 | < 5 µM | < 5 µM | Cc1ccsc1C(=O)NCc1nc(-c2ccncc2)n[nH]1 [Example 47, 3-Methyl-N-((3-(pyridin-4-yl)-1H-1,2,4-triazol-5-yl)methyl)thiophene-2-carboxamide]
14 | > 5 µM | > 5 µM | Cc1cccc(C(=O)NCc2c[nH]c(-c3ccncc3)n2)c1O [Example 13, 2-hydroxy-3-methyl-N-((2-(pyridin-4-yl)-1H-imidazol-4-yl)methyl)benzamide]
15 | > 5 µM | > 5 µM | O=C(c1cccs1)N1CCn2nc(-c3ccncc3)nc2C1 [Example 62, (2-(Pyridin-4-yl)-5,6-dihydro-[1,2,4]triazolo[1,5-a]pyrazin-7(8H)-yl)(thiophen-2-yl)methanone]
16 | < 5 µM | < 5 µM | Clc1ccc(SCc2nc(-c3ccncc3)n[nH]2)cc1 [Example 80]
17 | < 5 µM | < 5 µM | CC(NC(=O)c1cccs1)c1nc(-c2ccncc2)n[nH]1 (centres unmarked) [Example 65, N-(1-(3-(Pyridin-4-yl)-1H-1,2,4-triazol-5-yl)ethyl)thiophene-2-carboxamide]

Row | IC50 [1] | IC50 [2] | SMILES
18 | > 5 µM | > 5 µM | Oc1ccc(C(O)CCc2nc(-c3ccncc3)n[nH]2)cc1 (centres unmarked) [Example 64, 4-(1-hydroxy-3-(3-(pyridin-4-yl)-1H-1,2,4-triazol-5-yl)propyl)phenol]
19 | < 5 µM | < 5 µM | CC(C)(C)OC(=O)NC[C@H](NC(=O)c1ccc(O)cc1O)c1nc(-c2ccncc2)n[nH]1 [Example 79, (S)-tert-Butyl 2-(2,4-dihydroxybenzamido)-2-(3-(pyridin-4-yl)-1H-1,2,4-triazol-5-yl)ethylcarbamate]
20 | < 5 µM | < 5 µM | Cc1c(O)ccc(C(=O)NCc2nc(-c3ccncc3)n[nH]2)c1O [Example 46, 2,4-Dihydroxy-3-methyl-N-((3-(pyridin-4-yl)-1H-1,2,4-triazol-5-yl)methyl)benzamide]
21 | < 5 µM | < 5 µM | O=C(NCc1cc(-c2ccncc2)n[nH]1)c1ccc(O)cc1O [Example 9, 2,4-dihydroxy-N-((3-(pyridin-4-yl)-1H-pyrazol-5-yl)methyl)benzamide]
22 | > 5 µM | > 5 µM | O=S(=O)(NCc1nc(-c2ccncc2)n[nH]1)c1ccc(OCc2ccccc2)cc1 [Example 54, 4-(Benzyloxy)-N-((3-(pyridin-4-yl)-1H-1,2,4-triazol-5-yl)methyl)benzenesulfonamide]
23 | > 5 µM | > 5 µM | COc1ccc(C(=O)NCc2nc(-c3ccncc3)n[nH]2)cc1C [Example 40, 4-Methoxy-3-methyl-N-((3-(pyridin-4-yl)-1H-1,2,4-triazol-5-yl)methyl)benzamide]
24 | > 5 µM | > 5 µM | COc1ccc(C(=O)NCc2nc(-c3ccncc3)no2)cc1 [Example 4, 4-methoxy-N-((3-(pyridin-4-yl)-1,2,4-oxadiazol-5-yl)methyl)benzamide]
25 | < 5 µM | < 5 µM | O=C(NCc1nc(-c2c[nH]c3ncccc23)n[nH]1)c1ccc(O)cc1O [Example 69]
26 | < 5 µM | < 5 µM | O=C(NCc1nc(-c2ccncc2)n[nH]1)c1cccc2cc[nH]c12 [Example 42, N-((3-(Pyridin-4-yl)-1H-1,2,4-triazol-5-yl)methyl)-1H-indole-7-carboxamide]
27 | < 5 µM | < 5 µM | O=C(NCc1nc(-c2ccncc2)n[nH]1)c1ccccc1O [Example 25, 2-hydroxy-N-((3-(pyridin-4-yl)-1H-1,2,4-triazol-5-yl)methyl)benzamide]
28 | < 5 µM | < 5 µM | CC(C)(C)OC(=O)NCCCC(NC(=O)c1ccc(O)cc1O)c1nc(-c2ccncc2)n[nH]1 (centres unmarked) [Example 78, tert-Butyl 4-(2,4-dihydroxybenzamido)-4-(3-(pyridin-4-yl)-1H-1,2,4-triazol-5-yl)butylcarbamate]
29 | < 5 µM | < 5 µM | O=C(CCc1nc(-c2ccncc2)n[nH]1)c1ccc(O)cc1 [Example 63, 1-(4-hydroxyphenyl)-3-(3-(pyridin-4-yl)-1H-1,2,4-triazol-5-yl)propan-1-one]
30 | < 5 µM | < 5 µM | O=C(NCc1nnc(-c2ccnc3[nH]ccc23)o1)c1ccc(O)cc1O [Example 76, N-((5-(1H-Pyrrolo[2,3-b]pyridin-4-yl)-1,3,4-oxadiazol-2-yl)methyl)-2,4-dihydroxybenzamide]
31 | < 5 µM | < 5 µM | O=C(NCc1nc(-c2ccncc2)c[nH]1)c1cccs1 [Example 5, N-((4-(pyridin-4-yl)-1H-imidazol-2-yl)methyl)thiophene-2-carboxamide]
32 | > 5 µM | > 5 µM | O=C(NCc1nc(-c2ccncc2)no1)c1cccs1 [Example 2, N-((3-(pyridin-4-yl)-1,2,4-oxadiazol-5-yl)methyl)thiophene-2-carboxamide]
33 | > 5 µM | > 5 µM | CN(Cc1nc(-c2ccncc2)n[nH]1)C(=O)c1cccs1 [Example 57, N-Methyl-N-((3-(pyridin-4-yl)-1H-1,2,4-triazol-5-yl)methyl)thiophene-2-carboxamide]
34 | < 5 µM | < 5 µM | O=C(NCc1c[nH]c(-c2ccncc2)n1)c1ccc(O)cc1O [Example 12, 2,4-dihydroxy-N-((2-(pyridin-4-yl)-1H-imidazol-4-yl)methyl)benzamide]
